pIC50: −log10 of the molar value.
Molecular target: MAPK14 (human) (UniProt Q16539)
Test: Inhibition of MAPK14 Kinase Activtiy

Sequence of MAPK14 (human) (Q16539 whole entry, looked up): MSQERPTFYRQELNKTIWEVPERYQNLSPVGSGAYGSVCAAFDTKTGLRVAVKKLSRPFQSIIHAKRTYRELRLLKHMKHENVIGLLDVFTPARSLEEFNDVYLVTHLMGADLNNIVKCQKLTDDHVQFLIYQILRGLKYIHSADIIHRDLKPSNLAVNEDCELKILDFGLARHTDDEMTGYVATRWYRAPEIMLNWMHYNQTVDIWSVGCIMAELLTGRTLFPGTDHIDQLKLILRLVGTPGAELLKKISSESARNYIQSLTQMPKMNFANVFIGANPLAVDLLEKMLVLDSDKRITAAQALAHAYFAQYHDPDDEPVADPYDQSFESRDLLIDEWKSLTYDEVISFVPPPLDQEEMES

Structure (SMILES)	pIC50
CC(C)C[C@H](NCCCOc1cc(-c2ccc(F)cc2Cl)c2ccc(=O)n(-c3c(Cl)cccc3Cl)c2c1)C(=O)OC1CCN(C)CC1	> 7.00
CC(C)C[C@H](NCCCOc1cc(-c2ccc(F)cc2Cl)c2ccc(=O)n(-c3c(Cl)cccc3Cl)c2c1)C(=O)OC1CCCC1	> 7.00
CC(C)(C)OC[C@H](NCCCOc1cc(-c2ccc(F)cc2Cl)c2ccc(=O)n(-c3c(Cl)cccc3Cl)c2c1)C(=O)OC1CCCC1	> 7.00
CC(C)C[C@H](NC1CCC(c2cc(-c3ccc(F)cc3Cl)c3c(c2)N(c2c(Cl)cccc2Cl)C(=O)CC3)CC1)C(=O)O (stereo not given in full)	> 7.00
CC(C)C[C@H](NC[C@@H](O)COc1cc(-c2ccc(F)cc2Cl)c2ccc(=O)n(-c3c(F)cccc3F)c2c1)C(=O)O	> 7.00
CC(C)C[C@H](NCCCOc1cc(-c2ccc(F)cc2Cl)c2ccc(=O)n(-c3c(F)cccc3F)c2c1)C(=O)O	> 7.00
CC(C)C[C@H](NCCc1cc(-c2ccc(F)cc2Cl)c2ccc(=O)n(-c3c(F)cccc3F)c2c1)C(=O)O	> 7.00
O=C(O)[C@@H](NCCCOc1cc(-c2ccc(F)cc2Cl)c2ccc(=O)n(-c3c(F)cccc3F)c2c1)C1CCCCC1	> 7.00
CC(C)C[C@H](NC[C@H](O)COc1cc(-c2ccc(F)cc2Cl)c2ccc(=O)n(-c3c(F)cccc3F)c2c1)C(=O)O	> 7.00
CC(C)C[C@H](NCCc1cc(-c2ccc(F)cc2Cl)c2ccc(=O)n(-c3c(Cl)cccc3Cl)c2c1)C(=O)O	> 7.00
CC(C)C[C@H](NCCCOc1cc(-c2ccc(F)cc2F)c2ccc(=O)n(-c3c(F)cccc3F)c2c1)C(=O)O	> 7.00

Continued, values first:

pIC50	Structure (SMILES)
> 7.00	CC(C)C[C@H](NCCCCCOc1cc(-c2ccc(F)cc2Cl)c2ccc(=O)n(-c3c(Cl)cccc3Cl)c2c1)C(=O)O
> 7.00	O=C(O)[C@@H](NCCCOc1cc(-c2ccc(F)cc2Cl)c2ccc(=O)n(-c3c(F)cccc3F)c2c1)c1ccccc1
> 7.00	O=C(O)[C@@H](NCCCOc1cc(-c2ccc(F)cc2Cl)c2ccc(=O)n(-c3c(Cl)cccc3Cl)c2c1)c1ccccc1
> 7.00	CC(C)C[C@H](NCCCOc1cc(-c2ccc(F)cc2Cl)c2ccc(=O)n(-c3c(Cl)cccc3Cl)c2c1)C(=O)O
> 7.00	O=C(O)[C@@H](NCCCOc1cc(-c2ccc(F)cc2Cl)c2ccc(=O)n(-c3c(Cl)cccc3Cl)c2c1)C1CCCCC1
> 7.00	CC(C)C[C@H](NCCCOc1cc(-c2ccc(F)cc2Cl)c2ccc(=O)n(-c3ccccc3)c2c1)C(=O)O
> 7.00	CC(C)(C)OC[C@H](NCCCOc1cc(-c2ccc(F)cc2Cl)c2ccc(=O)n(-c3c(Cl)cccc3Cl)c2c1)C(=O)O
> 7.00	CC(C)C[C@H](NCCCOc1cc(-c2ccc(F)cc2Cl)c2ccc(=O)n(-c3c(Cl)cccc3Cl)c2c1)C(=O)OC(C)C
> 7.00	CC(C)(C)[C@H](NCCCOc1cc(-c2ccc(F)cc2Cl)c2ccc(=O)n(-c3c(Cl)cccc3Cl)c2c1)C(=O)O
